Experimental data as given in patent US5023087A, “Efficient method for preparation of prolonged release liposome-based drug delivery system” (Liposome Technology, Inc., priority 1989, dated 1991).

Experiments:
[1] = Clearance of 125I-sCT from the intramuscular or subcutaneous site of injection; format: in vivo, Sprague-Dawley rats; conditions: free drug, FIG. 2/3
Description: The rate of clearance of sCT from a given liposome furmulation was determined by monitoring the clearance of ^125 I-sCT from the intramuscular site of injection. Salmon calcitonin was spiked with ^1251 -sCT and encapsulated in MLVs as described in Example I in such a way that after the removal of non-liposome associated drug, the injection sample contained about 10,000 cpm of ^125 I per injection.
Male Sprague-Dawley rats weighing 95 to 100 g were lightly anesthetized with ether, and 20 ul or 100 ul of the ^125 I-sCT liposome samples were injected either in the lower part of the forelimbs or the hindlimbs respectively. Sixteen to twenty rats were used in each experiment. […] At each time point, two rats were anesthetized for blood sampling (two ml blood were drawn and counted for ^125 I radioactivity). […] The limbs were inserted into tubes and then counted for remaining radioactivity in a gamma counter. The eight to ten time points shown in FIG. 2 were selected so that the half-life of clearance from the IM site could be determined by a semi-log plot of the radioactivity remaining versus time after injection as shown in FIG. 3. […]
The urine and feces from the two rats kept in metabolic cages throughout the experiment were collected and counted for radioactivity. […]

[2] = Plasma levels of immunoreactive sCT (radio-immunoassay) after IM injection; format: in vivo, rats; conditions: 1 ug
Description: Rats weighing 95 to 105 gm were injected intramuscularly in the forelimbs with sCT or sCT-MLVs. At each time point, four rats were bled by cardiac puncture and the blood collected in pre-chilled EDTA containing tubes. The plasma was collected after centrifugation at 4° C. and quickly frozen. The frozen samples were sent to Hazleton Laboratories for sCT radio-immunoassay (RIA). […] Thus, sCT-MLVs injected intramuscularly can achieve prolonged delivery to the systemic circulation.

[3] = Apparent first order absorption rate constant of gentamicin from urinary excretion after IM injection; conditions: lipid dose 0 umol/inj.
Description: The gentamicin concentration in the liposomes formulation was determined by the EMIT assay (Syva, Palo Alto, CA) after lysis in triton X-100.
Therefore, the apparent absorption rate constant, Ka, was estimated with the urinary excretion.
One group of four rats was immediately placed in metabolic cages (one rat per cage) and urine was collected at 24 hour intervals for the duration of the experiment. Cages were rinsed with distilled water after each collection and the volume of the pooled urine and rinses were recorded. An aliquot of each sample was frozen until assay.

Row | Compound | clearance half-life from the site of IM injection [1] | plasma immunoreactive sCT in circulation [2] | Rate Const. Ka (apparent first order absorption rate constant) [3] [h⁻¹]
1 | CC(C)C[C@H](NC(=O)[C@H](CCCCN)NC(=O)CNC(=O)[C@H](CC(C)C)NC(=O)[C@@H](NC(=O)[C@@H]1CSSC[C@H](N)C(=O)N[C@@H](CO)C(=O)N[C@@H](CC(N)=O)C(=O)N[C@@H](CC(C)C)C(=O)N[C@@H](CO)C(=O)N[C@@H]([C@@H](C)O)C(=O)N1)C(C)C)C(=O)N[C@@H](CO)C(=O)N[C@@H](CCC(N)=O)C(=O)N[C@@H](CCC(=O)O)C(=O)N[C@@H](CC(C)C)C(=O)N[C@@H](Cc1c[nH]cn1)C(=O)N[C@@H](CCCCN)C(=O)N[C@@H](CC(C)C)C(=O)N[C@@H](CCC(N)=O)C(=O)N[C@H](C(=O)N[C@@H](Cc1ccc(O)cc1)C(=O)N1CCC[C@H]1C(=O)N[C@@H](CCCNC(=N)N)C(=O)N[C@H](C(=O)N[C@@H](CC(N)=O)C(=O)N[C@H](C(=O)NCC(=O)N[C@@H](CO)C(=O)NCC(=O)N[C@H](C(=O)N1CCC[C@H]1C(N)=O)[C@@H](C)O)[C@@H](C)O)[C@@H](C)O)[C@@H](C)O [F-sCT, Salmon calcitonin] | a few minutes | rapidly disappeared from circulation | 
2 | gentamicin [Gentamicin solution] |  |  | 5.3
